Experimental data: patent publication US9610273B2, “Method for the treatment of hypercholesterolemia” (SAMI LABS LIMITED, priority 2014, dated 2017)
Marks after values point to notes of the source that are not given here.

Key:
mice = assay: Acute Oral Toxicity of Calebin A; assay type: in vivo
Procedure: No mortality was observed up to 2000 mg/kg p.o. in mice up to two weeks of observation.

[1] = system: C57 mice on high fat diet (60 kcal % Fat); assay: Effect of Calebin A on serum clinical chemistry parameters in high fat diet obese mice (hypercholesterolemia and hyperlipidemia); assay type: in vivo; conditions: for change in mean Albumin values: female animals, considered incidental; for ALT/SGPT / AST/SGOT / Albumin / Glucose / Total Cholesterol / Total Protein / Triglycerides / HDL / LDL / VLDL: 28 days, serum, n = 5; for ALT/SGPT / AST/SGOT / Albumin / Glucose / Total Cholesterol / Total Protein / Triglycerides: Mean ± SD; for HDL / LDL / VLDL: mean
From the text: d. Diet: The animals were fed ad libitum with AMRUT Laboratory Animal feed manufactured by Pranav Agro Industries Limited, Sangli, Maharastra throughout the acclimatization Open Source Diet D12450B diet (with 10 kcal % Fat) and Open Source Diet D12492 High fat diet (with 60 kcal % Fat) manufactured by Research Diet Inc, USA procured from Indus Marketing, Hyderabad, Andhra Pradesh, INDIA was used for induction of obesity and the main study.
Grouping of animals was done on the last day of acclimatization by body weight randomization and stratification method.
The animals were divided into 5 groups viz., Group 1, 2, 3, 4 and 5 consisting of 10 animals (5 male and 5 female) each.
a. Dose Volume: Dose volume/animal=10 ml/kg body weight for all animals throughout the study period
b. Obesity induction: The G1 Control group animals were fed with normal control diet feed D12450B containing 10 kcal % fat and the G2 to G5 group animals were fed with high fat diet feed D12492 containing 60 kcal % fat during the induction of obesity and during main study. Obesity induction was done considering the scientific rationale that obesity is a serious risk factor for hypercholesterolemia.
c. Main Study: The main study was started after the induction of obesity. The 3 doses of Calebin A was administered to animals from Day 29 daily consecutively for a period of 28 days. The feeding of diets continued in the main study in a similar way as performed in induction of obesity. The G1 Control and G2 High fat diet control group animals were administered with 0.5% CMC (Carboxy Methyl Cellulose) while other group animals received test item from Day 29 to Day 56 of the study period. The dose volume of administration was maintained according to the weekly body weight of individual animals.
d. Duration of the study: The total duration of the study was 61 days (5 days Acclimatization period+28 days Induction of obesity+[…] Main study).
The raw data obtained from the present study were subjected to computer statistical processing. The computer printout of the data (in the form of appendix) was verified with the original raw data. After verification, the data was subjected to One-way ANOVA (Analysis of Variance) with Dunnett's post test for the data on body weights, hematology and clinical chemistry parameters, organ weights using GraphPad Prism version 5.01, GraphPad Software. All analyses and comparisons was evaluated at the 95% level of confidence (P<0.05), indicated by the designated by the superscripts of a where G1 is compared to G3, G4, G5, and G6 and b where G2 is compared to G3, G4, G5, and G6 throughout the report as stated below: *: Statistically significant (P<0.05) wherever applicable.
At the completion of the study period, blood samples were collected from all the animals in tubes containing potassium ethylene […] tetra acetic acid (K2-EDTA) anticoagulant for hematology and without anticoagulant for clinical chemistry. The blood samples collected in tubes without anticoagulant were centrifuged at 3000 rpm for 10 minutes to obtain serum. Blood samples were collected humanely from retro-orbital plexus puncture method under mild ether anesthesia with the help of a fine capillary tube. The following clinical chemistry parameters were analyzed.
The following clinical chemistry parameters (TABLE III) were analyzed using the “Erba Mannheim Chem Touch analyzer” (Transasia Bio-Medicals Ltd, India) from serum samples.

[2] = conclusion, doses of 5, 10 and 20 mg/kg body weight, hypercholesterolemic mammals
[3] = female mice, G3 5 mg/kg + High fat diet (60 kcal % Fat)
[4] = female mice, G4 10 mg/kg + High fat diet (60 kcal % Fat)
[5] = female mice, G5 20 mg/kg + High fat diet (60 kcal % Fat)
[6] = male and female animals, G3, G4, G5 (5, 10, 20 mg/kg + High fat diet) compared to G2 High fat diet Control
[7] = male animals, G3, G4, G5 (5, 10, 20 mg/kg + High fat diet) compared to G2 High fat diet Control
[8] = male mice, G3 5 mg/kg + High fat diet (60 kcal % Fat)
[9] = male mice, G4 10 mg/kg + High fat diet (60 kcal % Fat)
[10] = male mice, G5 20 mg/kg + High fat diet (60 kcal % Fat)

COc1cc(/C=C/C(=O)COC(=O)/C=C/c2ccc(O)c(OC)c2)ccc1O [Calebin A]
Aggression (mice; mouse, in vivo, po): Aggression = Nil | Atexia (mice; mouse, in vivo, po): Atexia = Nil | Blanching (mice; mouse, in vivo, po): Blanching = Nil | Clonic Convulsions (mice; mouse, in vivo, po): Clonic Convulsions = Nil | Corneal (mice; mouse, in vivo, po): Corneal = No effect | Cyanosis (mice; mouse, in vivo, po): Cyanosis = Nil | Diarrhea (mice; mouse, in vivo, po): Diarrhea = Nil | Excitation (mice; mouse, in vivo, po): Excitation = Nil | Fear (mice; mouse, in vivo, po): Fear = Nil | Fecal Output (mice; mouse, in vivo, po): Fecal Output = Normal | General Locomotor Activity (mice; mouse, in vivo, po): Normal | General Movement (mice; mouse, in vivo, po): General Movement = Normal | Hyperaemia (mice; mouse, in vivo, po): Hyperaemia = Nil | Muscular Weakness (mice; mouse, in vivo, po): Muscular Weakness = Nil | Passive (mice; mouse, in vivo, po): Passive = Nil | Pilo Erection (mice; mouse, in vivo, po): Pilo Erection = Nil | Pinnal (mice; mouse, in vivo, po): Pinnal = No effect | Respiration Depth (mice; mouse, in vivo, po): Respiration Depth = Normal | Respiration Rate (mice; mouse, in vivo, po): Respiration Rate = Normal | Salivation (mice; mouse, in vivo, po): Salivation = Nil | Tonic Convulsion (mice; mouse, in vivo, po): Tonic Convulsion = Nil | Tremors (mice; mouse, in vivo, po): Tremors = Nil | Urine Output (mice; mouse, in vivo, po): Urine Output = Normal | mortality (mice; up to 2000 mg/kg p.o., mice, up to two weeks of observation): No mortality | HDL concentrations in the blood [1, 2]: increased | LDL concentrations in the blood [1, 2]: decreased | VLDL concentrations in the blood [1, 2]: decreased | serum triglyceride concentrations ([1]; conclusion, doses of 5, 10 and 20 mg/kg body weight, hyperlipidemic mammals): lowered | change in mean Albumin values ([1]; G5 20 mg/kg + High fat diet compared to G1 Control (10 kcal % Fat)): statistically significant decrease | change in mean Albumin values ([1]; G5 20 mg/kg + High fat diet compared to G2 High fat diet Control): statistically significant decrease | ALT/SGPT [1, 3]: 41.73 ± 5.39 IU/L | AST/SGOT [1, 3]: 80.51 ± 32.35 IU/L | Albumin [1, 3]: 2.82 ± 0.19 g/dL | Glucose [1, 3]: 134.52 ± 26.85 mg/dL | Total Cholesterol [1, 3]: 75.71 ± 13.90 mg/dL | Total Protein [1, 3]: 5.37 ± 0.80 g/dL | Triglycerides [1, 3]: 60.15 ± 10.25 mg/dL | HDL [1, 3]: 81.59 mg/dL | LDL [1, 3]: 78.68 mg/dL | VLDL [1, 3]: 15.14 mg/dL | ALT/SGPT [1, 4]: 63.29 ± 32.86 IU/L | AST/SGOT [1, 4]: 79.89 ± 50.05 IU/L | Albumin [1, 4]: 2.80 ± 0.38 g/dL | Glucose [1, 4]: 112.34 ± 11.35 mg/dL | Total Cholesterol [1, 4]: 47.54 ± 14.21 mg/dL | Total Protein [1, 4]: 4.91 ± 0.20 g/dL | Triglycerides [1, 4]: 59.70 ± 4.33 mg/dL | HDL [1, 4]: 66.85 mg/dL | LDL [1, 4]: 61.20* ^b ± mg/dl | VLDL [1, 4]: 9.51 mg/dL | ALT/SGPT [1, 5]: 55.51 ± 16.94 IU/L | AST/SGOT [1, 5]: 79.91 ± 36.82 IU/L | Glucose [1, 5]: 93.58 ± 11.49 mg/dL | Total Cholesterol [1, 5]: 69.14 ± 21.88 mg/dL | Total Protein [1, 5]: 4.88 ± 0.27 g/dL | Triglycerides [1, 5]: 52.88 ± 4.56 mg/dL | HDL [1, 5]: 66.67 mg/dL | LDL [1, 5]: 52.31** ^b ± mg/dl | VLDL [1, 5]: 13.83 mg/dL | change in mean Low Density Lipoproteins values [1, 6]: decrease | change in mean Very Low Density Lipoproteins values [1, 6]: decrease | change in mean high Density Lipoproteins values ([1]; male and female animals, G4, G5 (10, 20 mg/kg + High fat diet) compared to G2 High fat diet Control): increase | change in mean Total Cholesterol values [1, 7]: decrease | change in mean Triglycerides values [1, 7]: decrease | ALT/SGPT [1, 8]: 64.35 ± 24.58 IU/L | AST/SGOT [1, 8]: 86.99 ± 35.22 IU/L | Albumin [1, 8]: 2.73 ± 0.23 g/dL | Glucose [1, 8]: 159.30 ± 17.02 mg/dL | Total Cholesterol [1, 8]: 63.46 ± 16.64 mg/dL | Total Protein [1, 8]: 4.74 ± 0.23 g/dL | Triglycerides [1, 8]: 76.53 ± 17.11 mg/dL | HDL [1, 8]: 20.46 mg/dL | LDL [1, 8]: 85.55 mg/dL | VLDL [1, 8]: 12.69 mg/dL | ALT/SGPT [1, 9]: 54.81 ± 13.58 IU/L | AST/SGOT [1, 9]: 89.48 ± 35.58 IU/L | Albumin [1, 9]: 2.43 ± 0.42 g/dL | Glucose [1, 9]: 130.49 ± 21.28 mg/dL | Total Protein [1, 9]: 5.08 ± 0.49 g/dL | HDL [1, 9]: 41.80 mg/dL | LDL [1, 9]: 97.45 mg/dL | VLDL [1, 9]: 12.37*^b ± mg/dl | ALT/SGPT [1, 10]: 48.44 ± 9.73 IU/L | AST/SGOT [1, 10]: 90.17 ± 25.87 IU/L | Albumin [1, 10]: 2.66 ± 0.17 g/dL | Glucose [1, 10]: 105.89 ± 37.17 mg/dL | Total Cholesterol [1, 10]: 70.48 ± 14.59 mg/dL | Total Protein [1, 10]: 4.42 ± 0.48 g/dL | HDL [1, 10]: 47.26 mg/dL | LDL [1, 10]: 94.46 mg/dL | VLDL [1, 10]: 14.10 mg/dL
